Experimental findings from patent US9981940B2, “Aryl sulfide derivatives and aryl sulfoxide derivatives as acaricides and insecticides” (BAYER CROPSCIENCE AKTIENGESELLSCHAFT, priority 2013, dated 2018) are described below.

One data set deals with Tetranychus urticae. In words: Tetranychus urticae spray test, OP-resistant (TETRUR). It counts as in vivo. Particulars: application rate of 500 g/ha; after 6 days. In a few lines:
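Mortality as % efficacy (0% = no mites killed) read 6 days after spraying. Formulation: active ingredient in acetone/dimethylformamide plus emulsifier, diluted with emulsifier-containing water, applied to Phaseolus vulgaris leaf discs carrying every life stage of OP-resistant spider mites.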

The test system of another data set is Meloidogyne incognita. The data set is described as follows: Meloidogyne incognita test (MELGIN). Type of data set: in vivo. Particulars: application rate of 20 ppm; after 14 days, by formation of galls. How it is done: Meloidogyne Incognita Test (MELGIN)
• Solvent: 125.0 parts by weight of acetone
To produce an appropriate active ingredient formulation, 1 part by weight of active ingredient is mixed with the specified amounts of solvent and the concentrate is diluted to the desired concentration with water.
Vessels are filled with sand, active ingredient solution, an egg/larvae suspension of the southern root-knot nematode (Meloidogyne incognita) and lettuce seeds. The lettuce seeds germinate and the plants develop. The galls develop on the roots
After 14 days, the nematicidal efficacy in % is determined by the formation of galls. 100% means that no galls have been found; 0% means that the number of galls on the treated plants corresponds to the untreated control.

The nature of data set [1]: log P by HPLC (OECD Guideline 117), method [a] acidic range. It counts as physicochemical. The conditions noted are these: HPLC, method [a] acidic range. How it is done:
(§1) The log P values were determined analogously to OECD Guideline 117 (EC Directive 92/69/EEC) by HPLC (high-performance liquid chromatography) using reversed-phase columns (C 18), by the following methods:
[a] The LC-MS determination in the acidic range is effected at pH 2.7 with 0.1% aqueous formic acid and acetonitrile (contains 0.1% formic acid) as eluents; linear gradient from 10% acetonitrile to 95% acetonitrile.

In a further data set the test system is Boophilus microplus. In words: Boophilus microplus injection test (BOOPMI Inj). Type of data set: in vivo. Particulars: application rate of 20 μg/animal, assessed after 7 days by laying of fertile eggs. In a few lines: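 Engorged adult female ticks (5 per test) injected in the abdomen with 1 μl of compound solution in DMSO, then held in a climate-controlled room. Efficacy scored after 7 days from fertile egg laying, with 100% meaning no fertile eggs and 0% all eggs fertile.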

The subject of the next data set is Phaedon cochleariae. The data set is described as follows: Phaedon cochleariae spray test (PHAECO). The conditions noted are these: application rate of 500 g/ha; after 7 days. Type of data set: in vivo. The procedure:
Phaedon cochleariae—Spray Test (PHAECO)
• Solvent: 78.0 parts by weight of acetone • 1.5 parts by weight of dimethylformamide • Emulsifier: 0.5 part by weight of alkylaryl polyglycol ether
(§2) To produce an appropriate active ingredient formulation, 1 part by weight of active ingredient is mixed with the specified amounts of solvent and emulsifier, and the concentrate is diluted to the desired concentration with emulsifier-containing water.
Discs of Chinese cabbage leaves (Brassica pekinensis) are sprayed with an active ingredient formulation of the desired concentration and, after drying, populated with larvae of the mustard beetle (Phaedon cochleariae).
After 7 days, the efficacy in % is determined 100% means that all beetle larvae have been killed; 0% means that none of the beetle larvae have been killed.

Data set [2] is described as follows: log P by HPLC (OECD Guideline 117), method [b] neutral range. Type of data set: physicochemical. Particulars: HPLC, method [b] neutral range. How it is done:
as §1
[b] The LC-MS determination in the neutral range is effected at pH 7.8 with 0.001 molar aqueous ammonium hydrogencarbonate solution and acetonitrile as eluents; linear gradient from 10% acetonitrile to 95% acetonitrile.

A further data set deals with Myzus persicae. The data set is described as follows: Myzus persicae spray test (MYZUPE). Particulars: application rate of 500 g/ha; after 6 days. Type of data set: in vivo. How it is done: Myzus persicae—Spray Test (MYZUPE)
• Solvent: 78 parts by weight of acetone • 1.5 parts by weight of dimethylformamide • Emulsifier: 0.5 part by weight of alkylaryl polyglycol ether
as §2
Discs of Chinese cabbage leaves (Brassica pekinensis) infested by all stages of the green peach aphid (Myzus persicae) are sprayed with an active ingredient formulation of the desired concentration.
After 6 days, the activity in % is determined 100% means that all the aphids have been killed; 0% means that none of the aphids have been killed.

For the molecule `COc1nn(-c2cc([S+]([O-])CC(F)(F)F)c(Cl)cc2Cl)c(=O)n1C1CC1` (stereo not shown) [Example 106], the efficacy in the data set on Tetranychus urticae, in the data set with Boophilus microplus and in the data set on Phaedon cochleariae was 100% in each case. Besides, the nematicidal efficacy with Meloidogyne incognita amounted to 90%. Further, the “logP[a]” value in data set [1] was 2.65. Further, the “logP[b]” value in data set [2] turned out to be 2.61.
Turning to `Cc1cc(F)c(N2CC(OCC3CC3)=CC2=O)cc1SCC(F)(F)F` [Example 331], the efficacy came out at 90% in the data set on Tetranychus urticae and 83% with Phaedon cochleariae. In the data set on Meloidogyne incognita, this molecule showed a nematicidal efficacy of 90%. In addition, in data set [1], the “logP[a]” value came to 3.64. Moreover, the “logP[b]” value in data set [2] came to 3.58.
For `COC1=CC(=O)N(c2ccc(C#N)c(SCC(F)(F)F)c2)C1` [Example 320], the “logP[a]” value in data set [1] was 2.45. For the same molecule, the results for the efficacy in the data set with Myzus persicae and in the data set with Phaedon cochleariae were 90% and 100%, respectively. In addition, in data set [2], the “logP[b]” value amounted to 2.43.
With `CCc1nn(-c2cc(SCC(F)(F)F)c(C)cc2F)c(=S)n1C1CC1` [Example 502], the efficacy in the data set with Tetranychus urticae stood at 90%; in the data set on Phaedon cochleariae, 83%. The molecule also registered a nematicidal efficacy with Meloidogyne incognita of 90%. In addition, in data set [1], the “logP[a]” value worked out at 3.69. Moreover, in data set [2], the “logP[b]” value stood at 3.65.
For the molecule `Cc1cc(F)c(-n2nnn(CC(F)(F)F)c2=O)cc1[S+]([O-])CC(F)(F)F` (racemic) [Example 305], the efficacy in the data set on Tetranychus urticae and in the data set on Boophilus microplus was 100% in each case. In the data set with Meloidogyne incognita, this molecule gave a nematicidal efficacy of 100%. The “logP[a]” value in data set [1] turned out to be 2.57. In addition, in data set [2], the “logP[b]” value is 2.51.
Consider `COc1nn(-c2ccc(Cl)c([S+]([O-])CC(F)(F)F)c2)c(=O)n1C` (stereo not shown) [Example 99], for which the efficacy in the data set with Tetranychus urticae was 90%; with Boophilus microplus it was 100%. Also, in the data set with Meloidogyne incognita, the nematicidal efficacy came out at 90%. Moreover, the “logP[a]” value in data set [1] is given as 2.54. Moreover, the “logP[b]” value in data set [2] stood at 2.52.
As to `Cc1cc(F)c(-n2nc(OCC(F)(F)F)n(C)c2=O)cc1[S+]([O-])CC(F)(F)F` (stereo not shown) [Example 160], the efficacy in the data set on Tetranychus urticae and in the data set with Boophilus microplus was 100% in each case. For the same molecule, the nematicidal efficacy in the data set on Meloidogyne incognita is on record as 100%. In addition, in data set [1], the “logP[a]” value was found to be 2.52. The “logP[b]” value in data set [2] is recorded as 2.38.
Consider `C=CCn1c([S+]([O-])CCC)nn(-c2cc([S+]([O-])CC(F)(F)F)c(C)cc2F)c1=O` (stereo not shown) [Example 423], for which the efficacy in the data set on Tetranychus urticae was 90%; with Boophilus microplus, 100%; in the data set with Myzus persicae, 90%. In addition, the “logP[a]” value in data set [1] was 2.34. Moreover, the “logP[b]” value in data set [2] is reported as 2.37.
In the case of `COc1nn(-c2cc([S+]([O-])CC(F)(F)F)c(C)cc2F)c(=O)n1C1CC1` (stereo not shown) [Example 104], the efficacy in the data set with Tetranychus urticae and with Boophilus microplus was 100% in each case. For the same molecule, in the data set on Meloidogyne incognita, the nematicidal efficacy stood at 90%. Besides, in data set [1], the “logP[a]” value was 2.13. For the same molecule, the “logP[b]” value in data set [2] worked out at 2.08.
As for `COc1nn(-c2cc([S+]([O-])CC(F)(F)F)c(Cl)cc2F)c(=O)n1C1CC1` (stereo not shown) [Example 115], the efficacy with Tetranychus urticae and in the data set with Boophilus microplus was 100% throughout. This molecule also came in with a nematicidal efficacy in the data set with Meloidogyne incognita of 90%. Besides, the “logP[a]” value in data set [1] is 2.45. The “logP[b]” value in data set [2] worked out at 2.43.
Regarding `COc1nn(-c2cc(SCC(F)(F)F)c(C)cc2Cl)c(=O)n1C1CC1` [Example 116], the figures for the efficacy in the data set with Tetranychus urticae and with Boophilus microplus were 90% and 100%, respectively. In the data set on Meloidogyne incognita, this molecule registered a nematicidal efficacy of 100%. The “logP[a]” value in data set [1] is listed as 3.20. Besides, the “logP[b]” value in data set [2] is listed as 3.30.
`Cc1cc(F)c(-n2nc(OCC(F)(F)F)n(C3CC3)c2=O)cc1[S+]([O-])CC(F)(F)F` (stereo not shown) [Example 102]: the efficacy with Tetranychus urticae and in the data set on Boophilus microplus was 100% in each case. Besides, in the data set with Meloidogyne incognita, the nematicidal efficacy came out at 100%. In addition, in data set [1], the “logP[a]” value turned out to be 2.83. In data set [2], the “logP[b]” value is listed as 2.77.
Consider `Cc1cc(F)c(N2CC(OCC3CC3)=CC2=O)cc1[S+]([O-])CC(F)(F)F` (stereo not shown) [Example 332], for which the figures for the efficacy with Tetranychus urticae and in the data set with Phaedon cochleariae were 90% and 83%, respectively. In the data set with Meloidogyne incognita, this molecule gave a nematicidal efficacy of 90%. Further, the “logP[a]” value in data set [1] came to 2.55. Also, the “logP[b]” value in data set [2] is reported as 2.50.
With `Cc1cc(F)c(-n2nc(-c3ccc(Cl)cc3F)n(C)c2=O)cc1SCC(F)(F)F` [Example 40], the efficacy in the data set with Tetranychus urticae was 100%. The molecule further registered a nematicidal efficacy in the data set on Meloidogyne incognita of 100%. In data set [1], the “logP[a]” value is listed as 4.06. Besides, the “logP[b]” value in data set [2] was 3.96.
Consider `Cc1cc(F)c(-n2nc(C(F)(F)F)n(N(C)C)c2=O)cc1[S+]([O-])CC(F)(F)F` (stereo not shown) [Example 213], for which the efficacy in the data set with Tetranychus urticae turned out to be 90%. For the same molecule, in the data set on Meloidogyne incognita, the nematicidal efficacy was determined as 90%. The “logP[a]” value in data set [1] was 3.16. The “logP[b]” value in data set [2] was 3.09.
As to `CCCCOc1nn(-c2cc([S+]([O-])CC(F)(F)F)c(C)cc2F)c(=O)n1C` (stereo not shown) [Example 146], the efficacy in the data set with Tetranychus urticae came to 100%. The nematicidal efficacy with Meloidogyne incognita came out at 90%. In data set [1], the “logP[a]” value is recorded as 2.90. In addition, in data set [2], the “logP[b]” value worked out at 2.85.
As for `COc1nn(-c2cc([S+]([O-])CC(F)(F)F)c(C)cc2Cl)c(=O)n1C1CC1` (stereo not shown) [Example 117], the efficacy in the data set on Tetranychus urticae is listed as 90%; with Boophilus microplus it was 100%. In addition, the nematicidal efficacy with Meloidogyne incognita is recorded as 100%. Further, the “logP[a]” value in data set [1] came to 2.28. In data set [2], the “logP[b]” value turned out to be 2.30.
As to `COc1nn(-c2cc(SCC(F)(F)F)c(C)cc2F)c(=O)n1C1CC1` [Example 105], the efficacy with Tetranychus urticae and with Boophilus microplus was 100% in each case. Also, the nematicidal efficacy in the data set with Meloidogyne incognita was 90%. Further, in data set [1], the “logP[a]” value came to 3.16. In addition, in data set [2], the “logP[b]” value is 3.11.
In the case of `Cc1cc(F)c(-n2nnn(CC(F)(F)C(F)(F)F)c2=O)cc1SCC(F)(F)F` [Example 444], in the data set on Tetranychus urticae, the efficacy is 100%. The nematicidal efficacy in the data set with Meloidogyne incognita is 90%. For the same molecule, in data set [1], the “logP[a]” value worked out at 4.09. Besides, the “logP[b]” value in data set [2] was 4.04.
The like results for `Cc1cc(F)c(-n2nc(-c3ccc(Cl)cc3F)n(C)c2=O)cc1[S+]([O-])CC(F)(F)F` (stereo not shown) [Example 39] were, in that order, 90%, 90%, 2.97 and 2.91.
With `Cc1cc(F)c(-n2nc(OCC(F)(F)F)n(C3CC3)c2=O)cc1SCC(F)(F)F` [Example 103], the efficacy with Tetranychus urticae and in the data set with Boophilus microplus was 100% each time. This molecule displayed a nematicidal efficacy with Meloidogyne incognita of 100%. Besides, the “logP[a]” value in data set [1] is given as 3.80. Further, the “logP[b]” value in data set [2] stood at 3.72.
For `COc1nn(-c2cc([S+]([O-])CC(F)(F)F)c(C)cc2F)c(=O)n1CC(F)(F)F` (stereo not shown) [Example 415], the results for the efficacy in the data set with Tetranychus urticae and in the data set with Boophilus microplus were 90% and 100%, respectively. This molecule gave a nematicidal efficacy in the data set with Meloidogyne incognita of 100%. Further, the “logP[a]” value in data set [1] came out at 2.48. Moreover, the “logP[b]” value in data set [2] amounted to 2.45.
In turn, `CCC(C)Oc1nn(-c2cc(SCC(F)(F)F)c(C)cc2F)c(=O)n1C1CC1` (stereo not shown) [Example 140] showed an efficacy in the data set on Tetranychus urticae of 100%. Further, the nematicidal efficacy in the data set with Meloidogyne incognita came to 90%. Also, the “logP[a]” value in data set [1] came out at 4.36. For the same molecule, the “logP[b]” value in data set [2] is 4.30.
